Key:
Assay in all cases: KAM-matrix competition in K562 lysate;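 on 0.001 uM KAM: median log10 fold change of treatment over DMSO control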;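 on 0.01 uM KAM: median log10 fold change of treatment over DMSO control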;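 on 0.1 uM KAM: median log10 fold change of treatment over DMSO control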;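 on 1 uM KAM: median log10 fold change of treatment over DMSO control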;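 on 10 uM KAM: median log10 fold change of treatment over DMSO control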
Format in all cases: binding
[1] = biological target: T1, CAMK1 (Homo sapiens, UniProt Q14012);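 on 0.001 uM KAM: median log10 fold change of treatment over DMSO control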;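 on 0.01 uM KAM: median log10 fold change of treatment over DMSO control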;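 on 0.1 uM KAM: median log10 fold change of treatment over DMSO control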;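 on 1 uM KAM: median log10 fold change of treatment over DMSO control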;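 on 10 uM KAM: median log10 fold change of treatment over DMSO control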
T1 construct: endogenous in cells; host or cells: K562
Procedure: (§1) Supplement 12953_2017_125_MOESM1_ESM.zip/MS_Supp Info.xlsx, sheet "KAM" | column: 10 uM KAM; 1 uM KAM; 0.1 uM KAM; 0.01 uM KAM; 0.001 uM KAM; RB50

[2] = biological target: T2, HIPK3 (Homo sapiens, UniProt Q9H422);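 on 0.001 uM KAM: median log10 fold change of treatment over DMSO control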;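 on 0.01 uM KAM: median log10 fold change of treatment over DMSO control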;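 on 0.1 uM KAM: median log10 fold change of treatment over DMSO control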;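 on 1 uM KAM: median log10 fold change of treatment over DMSO control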;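 on 10 uM KAM: median log10 fold change of treatment over DMSO control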
T2 construct: endogenous in cells; host or cells: K562 cells (combined S0.8 and P0.8 lysate)
Procedure: as §1

[3] = biological target: T3, IRAK4 (Homo sapiens, UniProt Q9NWZ3)
T3 construct: endogenous in cells; host or cells: K562
T3 sequence (Q9NWZ3 1-460): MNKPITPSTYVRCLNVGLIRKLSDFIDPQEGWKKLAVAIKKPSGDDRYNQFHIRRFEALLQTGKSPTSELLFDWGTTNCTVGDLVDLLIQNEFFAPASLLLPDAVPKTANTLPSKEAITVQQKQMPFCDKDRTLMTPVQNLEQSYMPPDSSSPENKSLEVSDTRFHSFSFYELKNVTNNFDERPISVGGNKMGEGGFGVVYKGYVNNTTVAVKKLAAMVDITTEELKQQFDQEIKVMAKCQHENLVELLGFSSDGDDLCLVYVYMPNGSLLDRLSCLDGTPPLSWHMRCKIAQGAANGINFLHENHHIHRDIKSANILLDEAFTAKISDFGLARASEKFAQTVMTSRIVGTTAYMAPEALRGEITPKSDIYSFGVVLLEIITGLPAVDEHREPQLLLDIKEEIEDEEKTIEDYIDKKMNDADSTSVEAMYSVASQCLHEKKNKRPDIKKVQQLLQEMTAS
Procedure: as §1

[4] = biological target: T4, MAPK8 (Homo sapiens, UniProt P45983)
T4 construct: endogenous in cells; host or cells: K562
Procedure: as §1

[5] = biological target: T5, MARK2 (Homo sapiens, UniProt Q7KZI7)
T5 construct: endogenous in cells; host or cells: K562
Procedure: as §1

[6] = biological target: T6, MAST4 (Homo sapiens, UniProt O15021)
T6 construct: endogenous in cells; host or cells: K562
Procedure: as §1

[7] = biological target: T7, MELK (Homo sapiens, UniProt Q14680)
T7 construct: endogenous in cells; host or cells: K562
Procedure: as §1

[8] = biological target: T8, NEK8 (Homo sapiens, UniProt Q86SG6)
T8 construct: endogenous in cells; host or cells: K562
T8 sequence (Q86SG6 1-692): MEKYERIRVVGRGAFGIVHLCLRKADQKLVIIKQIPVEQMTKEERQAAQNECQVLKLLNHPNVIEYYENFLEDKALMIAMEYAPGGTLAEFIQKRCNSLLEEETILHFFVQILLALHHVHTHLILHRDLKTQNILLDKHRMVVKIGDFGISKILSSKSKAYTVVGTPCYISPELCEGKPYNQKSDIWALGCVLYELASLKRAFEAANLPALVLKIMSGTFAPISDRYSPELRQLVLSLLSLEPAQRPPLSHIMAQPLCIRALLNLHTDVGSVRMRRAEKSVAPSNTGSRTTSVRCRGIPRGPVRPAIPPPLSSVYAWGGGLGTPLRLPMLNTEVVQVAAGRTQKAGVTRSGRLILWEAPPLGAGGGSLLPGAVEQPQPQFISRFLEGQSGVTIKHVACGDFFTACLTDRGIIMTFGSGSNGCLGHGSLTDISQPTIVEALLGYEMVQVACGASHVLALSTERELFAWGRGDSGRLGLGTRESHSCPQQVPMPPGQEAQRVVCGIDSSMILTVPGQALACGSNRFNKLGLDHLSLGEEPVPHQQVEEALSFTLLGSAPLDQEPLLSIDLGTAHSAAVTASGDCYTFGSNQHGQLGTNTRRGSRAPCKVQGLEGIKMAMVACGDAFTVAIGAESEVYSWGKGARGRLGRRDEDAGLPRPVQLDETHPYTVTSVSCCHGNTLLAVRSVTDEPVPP
Procedure: as §1

[9] = biological target: T9, PHKG1 (Homo sapiens, UniProt Q16816)
T9 construct: endogenous in cells; host or cells: K562
Procedure: as §1

[10] = biological target: T10, PLK1 (Homo sapiens, UniProt P53350);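 on 0.001 uM KAM: median log10 fold change of treatment over DMSO control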;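 on 0.01 uM KAM: median log10 fold change of treatment over DMSO control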;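 on 0.1 uM KAM: median log10 fold change of treatment over DMSO control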;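 on 1 uM KAM: median log10 fold change of treatment over DMSO control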;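 on 10 uM KAM: median log10 fold change of treatment over DMSO control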
T10 construct: endogenous in cells; host or cells: K562
Procedure: as §1

[11] = biological target: T11, RPS6KA5 (Homo sapiens, UniProt O75582)
T11 construct: endogenous in cells; host or cells: K562
Procedure: as §1

[12] = biological target: T12, SLK (Homo sapiens, UniProt Q9H2G2)
T12 construct: endogenous in cells; host or cells: K562
Procedure: as §1

[13] = KAM 0.001-10 uM, read-out: RB50 (the source's name)
[14] = read-out: RB50 (the source's name)

T2 sequence (Q9H422 whole entry): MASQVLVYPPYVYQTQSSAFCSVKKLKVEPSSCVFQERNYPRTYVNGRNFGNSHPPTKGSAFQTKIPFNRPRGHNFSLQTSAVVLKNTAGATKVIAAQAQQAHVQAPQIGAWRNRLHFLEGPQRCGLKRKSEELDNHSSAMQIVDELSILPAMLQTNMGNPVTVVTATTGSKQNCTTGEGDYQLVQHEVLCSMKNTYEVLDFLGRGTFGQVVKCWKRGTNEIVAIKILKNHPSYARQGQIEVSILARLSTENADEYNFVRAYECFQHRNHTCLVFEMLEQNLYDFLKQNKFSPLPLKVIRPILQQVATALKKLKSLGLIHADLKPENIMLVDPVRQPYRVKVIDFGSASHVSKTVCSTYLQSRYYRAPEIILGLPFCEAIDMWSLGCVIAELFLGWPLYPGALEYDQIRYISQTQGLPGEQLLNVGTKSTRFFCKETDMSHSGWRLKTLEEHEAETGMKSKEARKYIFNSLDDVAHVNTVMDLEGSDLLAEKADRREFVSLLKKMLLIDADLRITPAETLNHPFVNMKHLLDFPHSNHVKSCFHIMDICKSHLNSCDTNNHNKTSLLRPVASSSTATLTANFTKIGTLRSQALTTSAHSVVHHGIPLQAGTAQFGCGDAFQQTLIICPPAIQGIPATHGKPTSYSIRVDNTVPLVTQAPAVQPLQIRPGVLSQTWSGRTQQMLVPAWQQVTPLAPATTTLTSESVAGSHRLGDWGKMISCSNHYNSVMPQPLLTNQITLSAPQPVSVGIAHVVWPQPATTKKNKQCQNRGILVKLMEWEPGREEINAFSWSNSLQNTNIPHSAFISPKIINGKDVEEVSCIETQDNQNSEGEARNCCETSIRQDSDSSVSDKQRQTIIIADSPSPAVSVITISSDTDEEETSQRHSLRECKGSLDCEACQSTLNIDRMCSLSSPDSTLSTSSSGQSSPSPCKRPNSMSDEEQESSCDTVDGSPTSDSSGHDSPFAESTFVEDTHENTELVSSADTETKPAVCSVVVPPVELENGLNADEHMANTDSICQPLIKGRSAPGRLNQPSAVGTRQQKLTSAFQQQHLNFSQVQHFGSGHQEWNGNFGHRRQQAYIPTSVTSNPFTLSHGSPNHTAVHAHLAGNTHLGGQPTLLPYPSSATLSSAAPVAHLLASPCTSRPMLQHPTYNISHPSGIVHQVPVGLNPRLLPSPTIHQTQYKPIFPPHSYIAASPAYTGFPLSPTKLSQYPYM
T7 sequence (Q14680 whole entry): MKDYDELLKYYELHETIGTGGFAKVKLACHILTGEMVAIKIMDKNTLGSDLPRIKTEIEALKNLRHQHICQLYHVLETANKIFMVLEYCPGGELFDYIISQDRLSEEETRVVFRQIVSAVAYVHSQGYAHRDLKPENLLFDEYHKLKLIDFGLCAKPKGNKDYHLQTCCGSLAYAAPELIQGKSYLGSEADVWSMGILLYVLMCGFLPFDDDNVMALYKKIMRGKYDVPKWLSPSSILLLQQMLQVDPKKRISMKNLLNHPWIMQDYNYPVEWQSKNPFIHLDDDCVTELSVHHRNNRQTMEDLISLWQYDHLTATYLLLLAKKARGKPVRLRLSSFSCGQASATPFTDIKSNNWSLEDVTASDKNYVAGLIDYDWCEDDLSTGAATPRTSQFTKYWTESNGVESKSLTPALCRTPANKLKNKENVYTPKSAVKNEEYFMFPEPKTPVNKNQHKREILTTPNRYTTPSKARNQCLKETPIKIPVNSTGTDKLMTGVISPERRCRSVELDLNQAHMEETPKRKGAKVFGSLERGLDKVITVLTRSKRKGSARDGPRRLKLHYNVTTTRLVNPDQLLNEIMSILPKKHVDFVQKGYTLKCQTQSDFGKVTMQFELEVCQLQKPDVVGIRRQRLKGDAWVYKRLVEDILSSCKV
T6 sequence (O15021 whole entry): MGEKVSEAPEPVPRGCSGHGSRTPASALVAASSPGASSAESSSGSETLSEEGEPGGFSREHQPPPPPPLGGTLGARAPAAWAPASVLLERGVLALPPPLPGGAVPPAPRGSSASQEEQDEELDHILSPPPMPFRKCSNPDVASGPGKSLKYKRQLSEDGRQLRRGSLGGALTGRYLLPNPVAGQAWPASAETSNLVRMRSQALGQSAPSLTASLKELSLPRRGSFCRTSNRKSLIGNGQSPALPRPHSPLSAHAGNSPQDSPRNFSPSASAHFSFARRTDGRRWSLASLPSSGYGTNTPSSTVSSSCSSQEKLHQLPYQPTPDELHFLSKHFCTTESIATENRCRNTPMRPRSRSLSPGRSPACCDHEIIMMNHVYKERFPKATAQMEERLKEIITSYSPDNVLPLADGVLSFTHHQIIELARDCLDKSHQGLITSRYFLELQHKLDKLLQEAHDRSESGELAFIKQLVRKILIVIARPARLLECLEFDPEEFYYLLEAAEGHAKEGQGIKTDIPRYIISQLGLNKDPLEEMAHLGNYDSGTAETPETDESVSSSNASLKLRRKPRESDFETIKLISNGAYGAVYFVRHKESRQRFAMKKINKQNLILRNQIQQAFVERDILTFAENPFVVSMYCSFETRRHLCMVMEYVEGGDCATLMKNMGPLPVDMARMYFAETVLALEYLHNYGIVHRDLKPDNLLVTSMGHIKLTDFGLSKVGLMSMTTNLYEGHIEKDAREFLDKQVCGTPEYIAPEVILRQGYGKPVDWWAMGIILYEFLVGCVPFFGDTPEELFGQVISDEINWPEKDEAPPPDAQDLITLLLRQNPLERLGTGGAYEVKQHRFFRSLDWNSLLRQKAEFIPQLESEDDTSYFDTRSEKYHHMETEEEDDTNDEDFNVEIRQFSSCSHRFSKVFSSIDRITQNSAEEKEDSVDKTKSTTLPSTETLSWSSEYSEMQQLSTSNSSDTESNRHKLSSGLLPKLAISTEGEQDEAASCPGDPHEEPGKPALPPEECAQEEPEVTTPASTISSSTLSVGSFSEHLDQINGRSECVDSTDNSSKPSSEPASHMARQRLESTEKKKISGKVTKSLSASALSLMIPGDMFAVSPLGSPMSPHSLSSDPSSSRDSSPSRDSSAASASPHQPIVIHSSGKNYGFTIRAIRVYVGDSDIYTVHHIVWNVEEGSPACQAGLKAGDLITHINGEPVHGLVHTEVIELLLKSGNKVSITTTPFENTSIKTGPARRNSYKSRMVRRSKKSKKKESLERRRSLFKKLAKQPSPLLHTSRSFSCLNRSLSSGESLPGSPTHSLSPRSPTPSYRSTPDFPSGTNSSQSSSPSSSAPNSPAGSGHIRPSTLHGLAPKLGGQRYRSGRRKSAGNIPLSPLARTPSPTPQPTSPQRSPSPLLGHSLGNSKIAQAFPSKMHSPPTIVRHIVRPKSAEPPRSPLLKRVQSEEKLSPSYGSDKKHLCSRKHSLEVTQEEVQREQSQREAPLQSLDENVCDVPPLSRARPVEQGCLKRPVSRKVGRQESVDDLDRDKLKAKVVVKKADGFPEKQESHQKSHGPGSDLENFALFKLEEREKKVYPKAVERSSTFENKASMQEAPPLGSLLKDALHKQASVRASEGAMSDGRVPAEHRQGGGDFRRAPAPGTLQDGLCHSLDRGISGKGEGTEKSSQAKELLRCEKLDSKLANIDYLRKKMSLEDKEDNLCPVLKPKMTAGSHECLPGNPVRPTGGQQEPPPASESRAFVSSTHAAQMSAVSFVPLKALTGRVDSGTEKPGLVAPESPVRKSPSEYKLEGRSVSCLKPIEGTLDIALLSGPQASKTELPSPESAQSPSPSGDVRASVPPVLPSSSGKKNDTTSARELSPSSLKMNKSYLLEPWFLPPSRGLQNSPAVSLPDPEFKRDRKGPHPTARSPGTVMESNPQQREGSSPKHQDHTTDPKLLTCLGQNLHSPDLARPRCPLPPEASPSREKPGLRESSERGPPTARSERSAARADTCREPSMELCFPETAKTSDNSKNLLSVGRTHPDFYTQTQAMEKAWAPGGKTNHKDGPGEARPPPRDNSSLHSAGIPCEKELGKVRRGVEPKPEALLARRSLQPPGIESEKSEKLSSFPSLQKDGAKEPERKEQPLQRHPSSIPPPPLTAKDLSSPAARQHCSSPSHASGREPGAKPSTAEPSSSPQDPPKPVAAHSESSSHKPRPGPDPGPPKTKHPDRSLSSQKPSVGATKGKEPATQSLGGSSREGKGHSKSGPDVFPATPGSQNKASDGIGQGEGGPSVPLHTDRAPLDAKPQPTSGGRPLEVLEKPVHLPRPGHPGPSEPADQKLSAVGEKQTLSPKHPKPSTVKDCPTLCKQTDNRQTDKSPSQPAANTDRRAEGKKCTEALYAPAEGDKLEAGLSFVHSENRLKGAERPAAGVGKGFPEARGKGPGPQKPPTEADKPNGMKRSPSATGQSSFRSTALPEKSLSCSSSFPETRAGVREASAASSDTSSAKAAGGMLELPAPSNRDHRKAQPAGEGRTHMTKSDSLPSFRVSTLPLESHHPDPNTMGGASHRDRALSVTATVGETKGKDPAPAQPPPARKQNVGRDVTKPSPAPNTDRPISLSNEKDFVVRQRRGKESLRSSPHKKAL
T1 sequence (Q14012 whole entry): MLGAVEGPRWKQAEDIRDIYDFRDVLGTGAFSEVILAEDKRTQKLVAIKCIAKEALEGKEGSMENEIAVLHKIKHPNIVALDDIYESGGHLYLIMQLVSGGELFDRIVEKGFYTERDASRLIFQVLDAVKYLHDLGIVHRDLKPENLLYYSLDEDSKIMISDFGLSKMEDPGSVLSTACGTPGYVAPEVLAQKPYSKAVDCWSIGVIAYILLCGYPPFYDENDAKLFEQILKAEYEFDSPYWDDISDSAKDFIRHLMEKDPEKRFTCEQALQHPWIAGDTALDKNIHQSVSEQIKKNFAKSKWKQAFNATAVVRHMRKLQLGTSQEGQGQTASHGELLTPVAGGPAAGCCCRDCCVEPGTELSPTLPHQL

## N#CCc1ccc(Nc2nc(NCCCN)cc(Nc3cc(C4CC4)[nH]n3)n2)cc1 [KAM]
[1]; [13]
  IC50: 6470 nM
[1]; relative to 0 uM KAM = 0
  0.001 uM KAM: -0.0406
  0.01 uM KAM: 0.01937
  0.1 uM KAM: -0.06624
  1 uM KAM: -0.1636
  10 uM KAM: -0.3114
[2]; [13]
  IC50: > 10000 nM
[2]; relative to 0 uM KAM = 0
  0.001 uM KAM: -0.01362
  0.01 uM KAM: -0.04323
  0.1 uM KAM: -0.04392
  1 uM KAM: -0.1209
  10 uM KAM: -0.16
[3]; 0.001 uM KAM
  median Log10 fold change: -0.01083
[3]; 0.01 uM KAM
  median Log10 fold change: -0.003774
[3]; 0.1 uM KAM
  median Log10 fold change: -0.1174
[3]; 1 uM KAM
  median Log10 fold change: -0.3495
[3]; 10 uM KAM
  median Log10 fold change: -0.4574
[3]; [14]
  IC50: 922 nM
[4]; 0.001 uM KAM
  median Log10 fold change: -0.03388
[4]; 0.01 uM KAM
  median Log10 fold change: -0.03516
[4]; 0.1 uM KAM
  median Log10 fold change: -0.1302
[4]; 1 uM KAM
  median Log10 fold change: -0.2377
[4]; 10 uM KAM
  median Log10 fold change: -0.3812
[4]; [14]
  IC50: 2350 nM
[5]; 0.001 uM KAM
  median Log10 fold change: -0.02617
[5]; 0.01 uM KAM
  median Log10 fold change: -0.01928
[5]; 0.1 uM KAM
  median Log10 fold change: -0.2168
[5]; 1 uM KAM
  median Log10 fold change: -0.4361
[5]; 10 uM KAM
  median Log10 fold change: -0.5469
[5]; [14]
  IC50: 336 nM
[6]; 0.001 uM KAM
  median Log10 fold change: -0.03696
[6]; 0.01 uM KAM
  median Log10 fold change: 0.002822
[6]; 0.1 uM KAM
  median Log10 fold change: -0.135
[6]; 1 uM KAM
  median Log10 fold change: -0.3289
[6]; 10 uM KAM
  median Log10 fold change: -0.3337
[6]; [14]
  IC50: 1260 nM
[7]; 0.001 uM KAM
  median Log10 fold change: -0.02147
[7]; 0.01 uM KAM
  median Log10 fold change: 0.005817
[7]; 0.1 uM KAM
  median Log10 fold change: -0.06915
[7]; 1 uM KAM
  median Log10 fold change: -0.3528
[7]; 10 uM KAM
  median Log10 fold change: -0.5701
[7]; [14]
  IC50: 940 nM
[8]; 0.001 uM KAM
  median Log10 fold change: -0.1269
[8]; 0.01 uM KAM
  median Log10 fold change: -0.1123
[8]; 0.1 uM KAM
  median Log10 fold change: -0.2566
[8]; 1 uM KAM
  median Log10 fold change: -0.2815
[8]; 10 uM KAM
  median Log10 fold change: -0.455
[8]; [14]
  IC50: 861 nM
[9]; 0.001 uM KAM
  median Log10 fold change: -0.0673
[9]; 0.01 uM KAM
  median Log10 fold change: -0.04082
[9]; 0.1 uM KAM
  median Log10 fold change: -0.2109
[9]; 1 uM KAM
  median Log10 fold change: -0.4403
[9]; 10 uM KAM
  median Log10 fold change: -0.5431
[9]; [14]
  IC50: 329 nM
[10]; [13]
  IC50: > 10000 nM
[10]; relative to 0 uM KAM = 0
  0.001 uM KAM: -0.04372
  0.01 uM KAM: 0.0006975
  0.1 uM KAM: -0.07002
  1 uM KAM: -0.1195
  10 uM KAM: -0.1377
[11]; 0.001 uM KAM
  median Log10 fold change: 0.02456
[11]; 0.01 uM KAM
  median Log10 fold change: -0.007608
[11]; 0.1 uM KAM
  median Log10 fold change: -0.1303
[11]; 1 uM KAM
  median Log10 fold change: -0.3238
[11]; 10 uM KAM
  median Log10 fold change: -0.3743
[11]; [14]
  IC50: 1190 nM
[12]; 0.001 uM KAM
  median Log10 fold change: 0.008335
[12]; 0.01 uM KAM
  median Log10 fold change: -0.005793
[12]; 0.1 uM KAM
  median Log10 fold change: -0.3118
[12]; 1 uM KAM
  median Log10 fold change: -0.5551
[12]; 10 uM KAM
  median Log10 fold change: -0.6917
[12]; [14]
  IC50: 139 nM
